From BindingDB's records for doi:10.7270/Q2891498 (Nmmlsc, 2009)

Target: T1, GTPase KRas [1-37] (Homo sapiens, UniProt G3V5T7)
T1 construct: 1-37
Experiment: wildtype Ras GTP binding inhibitors, SAR follow-up, biochemical, additional analogs, multiplex flow cytometry, Ki (AID 2038)

T1 sequence (G3V5T7 whole entry): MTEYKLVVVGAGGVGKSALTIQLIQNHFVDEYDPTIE

Ki: 5.85 µM
Compound: O=C1N=c2c(Br)cccc2=C1c1[nH]c2ccccc2c1NO [7-bromanyl-3-[3-(oxidanylamino)-1H-indol-2-yl]indol-2-one]
